Laboratory results taken from patent EP0165151A1, “Peptide derivatives as renin inhibitors, process for their preparation and their therapeutical application” (SANOFI, priority 1984, dated 1985).
Square brackets hold non-standard residues; d marks the D form. Peptide text beside a SMILES is read from it. * marks the point of attachment. Sta = CC(C)C[C@H](N)[C@@H](O)CC(=O)O; Isovaleryl = CC(C)CC(=O)*; Nle = CCCC[C@H](N)C(=O)O

Test: Solubility in water
Type: physicochemical
Details: pH : 7,4
Excerpt: Dans les mêmes conditions les composés SR 42406 sous forme de chlorhydrate et SR 43054 B possèdent une solubilité dans l'eau de 1 % et 4 % environ.

solubilité dans l'eau	solubilité dans l'eau (sous forme de chlorhydrate)	Structure (SMILES)
~4%	–	CCCC[C@H](NC(=O)[C@H](Cc1ccccc1)NC(=O)CC(C)C)C(=O)N[C@@H](CC(C)C)[C@@H](O)CC(=O)N[C@@H](C)C(=O)N[C@@H](CC(C)C)[C@@H](O)CC(=O)N[C@@H](CC(=O)O)C(=O)O [SR 43504 B, iVa-Phe-Nle-Sta-Ala-Sta-Asp-OH, Disel de trishydroxyméthyl-aminométhane] (Isovaleryl-F[Nle][Sta]A[Sta]D-OH)
soluble dans l'eau à environ %	–	CCCC[C@H](NC(=O)[C@H](Cc1ccccc1)NC(=O)CC(C)C)C(=O)N[C@@H](CC(C)C)[C@@H](O)CC(=O)N[C@@H](C)C(=O)N[C@@H](CC(C)C)[C@@H](O)CC(=O)N[C@@H](CCCCN)C(=O)O [SR 42 654, iVa - Phe - Nle - Sta - Ala - Sta - Lys - OH] (Isovaleryl-F[Nle][Sta]A[Sta]K-OH)
–	~1%	CCCC[C@H](NC(=O)[C@H](Cc1ccccc1)NC(=O)CC(C)C)C(=O)N[C@@H](CC(C)C)[C@@H](O)CC(=O)N[C@@H](C)C(=O)N[C@@H](CC(C)C)[C@@H](O)CC(=O)N[C@@H](CCCNC(=N)N)C(=O)OC [SR 42406, iVa - Phe - Nle - Sta - Ala - Sta - Arg - OMe] (Isovaleryl-F[Nle][Sta]A[Sta]R-OMe)
